Data published in patent US6740680B1, “Pharmaceutical compositions to tetrac and methods of use thereof” (Becton Pharma, Inc., priority 1999, dated 2004).
Read-outs that look alike come from different tables or passages of the source.

What was measured:
[1] = test system: monodeiodinase type 1 mRNA; assay: Northern blot, hepatic monodeiodinase type 1 mRNA; type: in vivo, rat; settings: Liver, infused rats, adjusted group mean at the mean Ln (TSH) concentration
Procedure: (§1) Seventy-nine male SIVZ rats were purchased from the breeder (Institut für Labortierkunde des Universität Zürich, Zürich, Switzerland). They were rendered hypothyroid by a single injection of [^131I]Na (100 μCi/rat) and before and throughout the experiment 0.02% 2-mercapto-1-methylimidazol (MMI) was added to drinking water. In order to have an euthyroid control group of similar weight and identical age, 10 rats received only MMI in the drinking water and 2 weeks before implanting the minipumps, MMI was withdrawn. Osmotic minipumps (secretion rate 0.25 μl/hour, duration 14 days) were implanted intraperitoneally (i.p.) 2 months after the injection of [^131I]Na. The minipumps were filled with T4 or Tetrac dissolved in 0.05 N NaOH, 2% BSA and 100,000 cpm [^125I]T4 or [^125I]Tetrac as control of their secretion rates. The infusion lasted 13 days. 0, 1.5, 4.5, 13.5 and 40.5 nmol Tetrac/day/100 g or 0.5, 1.5, 4.5 and 13.5 nmol T4/day/100 g bodyweight (BW) (n=4/dose) were infused. An euthyroid control group was included. The animals were weighed every 2 days. Rats were sacrificed by decapitation and blood was collected and stored at […] until use. Tissues (liver, heart, brown adipose tissue, cerebral cortex and pituitary) were removed rapidly, frozen in liquid nitrogen and stored at […] until use.
(§2) Total RNA extraction and Northern Blot hybridization Total RNA was extracted with the method of Chomczynski and Sacchi (Chomczynski, P. and Sacchi, N. Anal. Biochem. (1987) 162: 156-159). […]
(§3) The amount of labeled mRNA was quantified by scanning laser densitometry (Phosphorimager, Molecular Dynamics; Sunnyvale, USA). Variations in RNA loading and membrane transfer were corrected by densitometric quantification of a negative photograph of 28S and 18S ribosomal RNA bands from ethidium bromide stained RNA gels. […]

[2] = test system: GH mRNA; assay: Northern blot, growth hormone mRNA in pituitary; type: in vivo, rat; settings: infused rats, adjusted group mean at the mean Ln (TSH) concentration
Procedure: as §1, §2, §3

[3] = test system: Monodeiodinase type 2; assay: Monodeiodinase type 2 activity in brain cortex and brown adipose tissue of infused rats; type: in vivo, rat; settings: for Residual monodeiodinase type 2 activity, adjusted mean: infused rats, remaining activity, adjusted group mean at the mean Ln (TSH) concentration
Procedure: as §1
(§4) Monodeiodinase type 1 and 2 activities. Monodeiodinase type 1 and type 2 activities were determined in tissue homogenates by measuring the release of radioiodide from [^125I]rT3 according to the method of Leonard and Rosenberg (Leonard, J. L. et al. Endocrinology (1980) 106: 444-451).
(§5) Monodeiodinase type 1 activity was measured in liver homogenates using 1 μM rT3 and 1 mM DTT with 10 min of incubation, whereas for heart, 0.01 μM rT3 and 10 mM DTT with 1 hour of incubation. Monodeiodinase type 2 activity was measured in brown adipose tissue (BAT) and cerebral cortex using 1 nM rT3, 10 mM DTT and 1 mM propylthiouracil (PTU) with 1 hour of incubation. Protein concentrations were measured by the method of Bradford (Bio-Rad Laboratories GmbH, Munich, Germany) with bovine gammaglobulin as the protein standard. In order to study the effect of circulating Tetrac on the enzyme activities, 2 rats were injected intraperitoneally with 10 μCi ^125I Tetrac and killed 6 hours later. The tissue homogenates were extracted with 3 volumes of ethanol-NH3 (97:3). After 10 minutes centrifugation at 15,000 g, the supernatant was vacuum dried and applied to TLC (Merck 254, Toluol, acetic acid, water: 2:2:1). In order to calculate the tissue concentrations, the highest serum Tetrac levels were used (406 pmol/ml). The calculated tissue concentrations were: liver: 1.9, heart: 2.29 and brain cortex: 0.47 fluol Tetrac/μg protein.

[4] = test system: α-MHC mRNA; assay: Northern blot, α-MHC mRNA in heart; type: in vivo, rat
Procedure: as §1, §2, §3

[5] = test system: Monodeiodinase type 1; assay: Monodeiodinase type 1 activity in liver and heart homogenates of infused rats; type: in vivo, rat; settings: Liver, infused rats, adjusted group mean at the mean Ln (TSH) concentration
Procedure: as §1, §4, §5

[6] = test system: hypothyroid rats; assay: Heart weight and heart/body weight in hypothyroid rats infused with Tetrac or T4; type: in vivo, rat; settings: hypothyroid rats, mean ± SEM; for Heart: continuous minipump infusion
Procedure: as §1

[7] = test system: TSH; assay: Serum TSH in hypothyroid rats infused with Tetrac or T4; type: in vivo, rat; settings: for Serum TSH: hypothyroid rats, mean ± SEM
Procedure: Seventy-nine male SIVZ rats were purchased from the breeder (Institut für Labortierkunde des Universität Zürich, Zürich, Switzerland). […] The infusion lasted 13 days. […] An euthyroid control group was included. The animals were weighed every 2 days. Rats were sacrificed by decapitation and blood was collected and stored at […] until use. Tissues (liver, heart, brown adipose tissue, cerebral cortex and pituitary) were removed rapidly, frozen in liquid nitrogen and stored at […] until use.
Hornone assays. […] Endocrinol. […] Serum TSH measurements were performed with reagents kindly provided by the National Pituitary Program, NIAMDD, NIH (Bethesda, USA).

[8] = test system: β-MHC mRNA; assay: Northern blot, β-MHC mRNA in heart; type: in vivo, rat; settings: infused rats, adjusted group mean at the mean Ln (TSH) concentration
Procedure: as §1, §2, §3

[9] = Serum T3, T4, Triac and Tetrac levels in infused rats; type: in vivo; settings: male, SIVZ, rat, intraperitoneal, mean ± SEM, read-out: Serum T4
Procedure: as §1
Hornone assays. Total serum T4, T3, Tetrac, Triac and TSH levels (intra-assay coefficient of variation 7 to 10%, inter-assay coefficient of variation 12 to 15%) were measured using the method of Burger, A., Sakoloff, C., Staeheli, V., Vallotton, M. D., and Ingbar, S. H. Acta. Endocrinol. (Copenh.) 80: 58-69 (1975). Serum TSH measurements were performed with reagents kindly provided by the National Pituitary Program, NIAMDD, NIH (Bethesda, USA). The detection limits were 0.80 ng TSH/ml; 9.5 pmol T4/ml; 0.16 pmol T3/ml; 10 pmol Tetrac/ml and 0.52 pmol Triac/ml.

[10] = test system: Cynomologus monkeys
Procedure: Preparation of Tetrac for injection. Tetrac from Rhône-Poulenc and Henning Laboratory were compared. Tetrac powder was dissolved in sterile 0.1 N NaOH at 2 mg/ml. This solution was made before the beginning of each treatment period and stored at 4° C. in polypropylene tubes, protected from light. Each solution for injection was prepared daily after dilution in the vehicle (0.9% NaCl) containing 5% monkey serum (v/v), and was stored at room temperature and protected from light, according to the storage conditions of the test substance.
Animals. One male and one female purpose bred Cynomologus monkeys Macaca fascicularis were supplied by Centre de Recherches Primatologiques, Port Louis, Mauritius. […] The animals were individually housed in stainless steel cages and a metallic tray was placed under each cage in order to collect urine. The animals were fed daily with approximately 200 grams each of U.A.R. 107 C pelleted diet (batch Nos. 61106, 61207 and 70317, U.A.R., Villemoisson-sur-Orge, France), distributed about 2 hours after treatment with Tetrac. No contaminants were known to have been present in the diet, drinking water or bedding material at levels which may be expected to have interfered with or prejudiced the outcome of the study.
Weeks 1 to 3 and weeks 7 to 9: the animals received the test substance TETRAC provided either by Rhone-Poulenc or by Henning Laboratories over a three-week period.
Weeks 4 to 6 and weeks 10 to 12: a washout period of three weeks was observed.
Administration of Tetrac. Tetrac was administered via intramuscular injection into the thigh muscle once a day, at approximately the same time each day, several days a week over a three week period. The quantity of tetrac administered to each animal was adjusted according to the most recently recorded body weight. A constant dosage-volume of 0.5 ml/kg was used.
Morbidity and mortality. The animals were checked at least twice a day, for mortality and signs of morbidity.
Body weight. Body weight was recorded for each animal once before the beginning of the treatment period, on the first day of the treatment period, and at least once a week until the end of the study.
Food consumption. Food consumption was estimated for each animal by calculating the difference between the quantity given and that remaining the next morning. This was estimated daily during the week before treatment and throughout the study. Food consumption was expressed as a percentage of the quantity given. Whenever fasting was required, the food was removed at the end of the day and the estimation of consumption was made at that time, food being made available for approximately five hours on that day.

[11] = infusion 13.5 nmol/day/100 g BW
[12] = Female, treatment period (3 weeks, 75 μg/kg/day i.m.)
[13] = Female, washout period (3 weeks)
[14] = Male, treatment period (3 weeks, 75 μg/kg/day i.m.)

Compound: N[C@@H](Cc1cc(I)c(Oc2cc(I)c(O)c(I)c2)c(I)c1)C(=O)O [T4, L-thyroxine, reference compound]
- Residual Monodeiodinase type 1 mRNA, adjusted mean [1]: 5.1 arbitrary units
- GH mRNA, adjusted mean [2]: 28644 arbitrary units
- Residual monodeiodinase type 2 activity, T4/Tetrac (activity of T4 in % of Tetrac) ([3]; BAT): 42%
- Residual monodeiodinase type 2 activity, adjusted mean ([3]; BAT): 11.8
- Residual monodeiodinase type 2 activity, T4/Tetrac (activity of T4 in % of Tetrac) ([3]; Brain Cortex): 18%
- Residual monodeiodinase type 2 activity, adjusted mean ([3]; Brain Cortex): 5.02
- α-MHC mRNA, T4/Tetrac (activity of T4 in % of Tetrac) [4]: 21%
- α-MHC mRNA, adjusted mean ([4]; infused rats, adjusted group mean at the mean Ln (TSH) concentration): 1.13 arbitrary units
- Residual Monodeiodinase type 1 activity, adjusted mean [5]: 180
- Heart ([6]; 0.5 nmol/day/100 g BW): 0.86 ± 0.06 g
- Heart ([6]; 1.5 nmol/day/100 g BW): 0.90 ± 0.04 g
- Heart ([6]; 4.5 nmol/day/100 g BW): 1.19 ± 0.03 g
- Heart ([6]; 13.5 nmol/day/100 g BW): 1.32 ± 0.11 g
- Heart/BW (%) ([6]; infusion 0.5 nmol/day/100 g BW): 0.35 ± 0.02%
- Heart/BW (%) ([6]; infusion 1.5 nmol/day/100 g BW): 0.34 ± 0.01%
- Heart/BW (%) ([6]; infusion 4.5 nmol/day/100 g BW): 0.45 ± 0.02%
- Heart/BW (%) [6, 11]: 0.54 ± 0.02%
- Serum TSH ([7]; infusion 0.5 nmol/day/100 g BW): 110.2 ± 10.8 ng/mL
- Serum TSH ([7]; infusion 1.5 nmol/day/100 g BW): 11.8 ± 3.0 ng/mL
- Serum TSH ([7]; infusion 4.5 nmol/day/100 g BW): 1.0 ± 0.2 ng/mL
- Serum TSH [7, 11]: <0.8 ng/mL
- Serum TSH concentration, mean of treatment group ([7]; mean over all dose levels of the treated rats, p=<0.04): 31 ng/mL
- β-MHC mRNA, adjusted mean [8]: 495 arbitrary units
- concentration at 13 days ([9]; T4 infusion 0.5 nmol/day/100 g BW): 43.1 ± 2.8 nM
- concentration at 13 days ([9]; T4 infusion 1.5 nmol/day/100 g BW): 77.1 ± 9.4 nM
- concentration at 13 days ([9]; T4 infusion 4.5 nmol/day/100 g BW): 130 ± 9.5 nM
- concentration at 13 days ([9]; T4 infusion 13.5 nmol/day/100 g BW): 353 ± 31.7 nM

Compound: O=C(O)Cc1cc(I)c(Oc2cc(I)c(O)c(I)c2)c(I)c1 [Tetrac from Henning Laboratory, 3,3′,5,5′-tetraiodothyroacetic acid]
- Body weight gain (%) ([10]; Female, treatment period): g (+9%)
- Food consumption 75%: days of observation/number of days in period ([10]; Female, treatment period): 75%: 13/21
- Food consumption 100%: days of observation/number of days in period ([10]; Female, treatment period): 100%: 8/21
- Food consumption (in words) ([10]; Female, treatment period): slightly lower food consumption
- Body weight gain [10, 12]: +300 g
- Body weight gain (%) ([10]; Female, washout period): g (+3%)
- Food consumption 75%: days of observation/number of days in period ([10]; Female, washout period): 75%: 3/21
- Food consumption 100%: days of observation/number of days in period ([10]; Female, washout period): 100%: 18/21
- Body weight gain [10, 13]: +100 g
- Body weight gain (%) ([10]; Male, treatment period): g (+3%)
- Food consumption 100%: days of observation/number of days in period ([10]; Male, treatment period): 100%: 21/21
- Body weight gain [10, 14]: +200 g
- Food consumption 100%: days of observation/number of days in period ([10]; Male, washout period): 100%: 21/21
- Body weight gain ([10]; Male, washout period (3 weeks)): 0 g

Compound: O=C(O)Cc1cc(I)c(Oc2cc(I)c(O)c(I)c2)c(I)c1 [Tetrac from Rhône-Poulenc, 3,3′,5,5′-tetraiodothyroacetic acid]
- Body weight gain (%) ([10]; Female, treatment period): g (+8%)
- Food consumption 75%: days of observation/number of days in period ([10]; Female, treatment period): 75%: 7/21
- Food consumption 100%: days of observation/number of days in period ([10]; Female, treatment period): 100%: 14/21
- Body weight gain [10, 12]: +300 g
- Food consumption 75%: days of observation/number of days in period ([10]; Female, washout period): 75%: 5/21
- Food consumption 100%: days of observation/number of days in period ([10]; Female, washout period): 100%: 16/21
- Body weight gain [10, 13]: 0 g
- Body weight gain (%) ([10]; Male, treatment period): g (+2%)
- Food consumption 75%: days of observation/number of days in period ([10]; Male, treatment period): 75%: 1/21
- Food consumption 100%: days of observation/number of days in period ([10]; Male, treatment period): 100%: 20/21
- Body weight gain [10, 14]: +100 g
- Body weight gain (%) ([10]; Male, washout period): g (+2%)
- Food consumption 100%: days of observation/number of days in period ([10]; Male, washout period): 100%: 21/21
- Body weight gain ([10]; Male, washout period (3 weeks)): +100 g
